Reference: PubChem BioAssay (NCI)
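Each compound was tested at five concentrations against cells in 96-well plates for 48 hours. TGI denotes the concentration required for complete inhibition of growth.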

Key:
Assay in all cases: NCI-60 cell line screen, 48 h
A498 renal = tested on: A498 renal
SW-620 colon = tested on: SW-620 colon
HOP-92 NSCLC = tested on: HOP-92 NSCLC
UO-31 renal = tested on: UO-31 renal
K-562 leukemia = tested on: K-562 leukemia
CAKI-1 renal = tested on: CAKI-1 renal
SK-MEL-5 melanoma = tested on: SK-MEL-5 melanoma
COLO 205 colon = tested on: COLO 205 colon
HL-60(TB) leukemia = tested on: HL-60(TB) leukemia
SNB-19 CNS = tested on: SNB-19 CNS
XF 498 CNS = tested on: XF 498 CNS
RPMI-8226 leukemia = tested on: RPMI-8226 leukemia
KM12 colon = tested on: KM12 colon
MOLT-4 leukemia = tested on: MOLT-4 leukemia
NCI-H23 lung = tested on: NCI-H23 lung
OVCAR-4 ovarian = tested on: OVCAR-4 ovarian
SK-MEL-28 melanoma = tested on: SK-MEL-28 melanoma
RXF 393 renal = tested on: RXF 393 renal
DU-145 prostate = tested on: DU-145 prostate
HS 578T breast = tested on: HS 578T breast

Row | Structure (SMILES) | TGI (A498 renal) [µM] | TGI (SW-620 colon) [µM] | TGI (HOP-92 NSCLC) [µM] | TGI (UO-31 renal) [µM] | TGI (K-562 leukemia) [µM] | TGI (CAKI-1 renal) [µM] | TGI (SK-MEL-5 melanoma) [µM] | TGI (COLO 205 colon) [µM] | TGI (HL-60(TB) leukemia) [µM] | TGI (SNB-19 CNS) [µM] | TGI (XF 498 CNS) [µM] | TGI (RPMI-8226 leukemia) [µM] | TGI (KM12 colon) [µM] | TGI (MOLT-4 leukemia) [µM] | TGI (NCI-H23 lung) [µM] | TGI (OVCAR-4 ovarian) [µM] | TGI (SK-MEL-28 melanoma) [µM] | TGI (RXF 393 renal) [µM] | TGI (DU-145 prostate) [µM] | TGI (HS 578T breast) [µM]
1 | CCCOC(=O)C1CCC(=O)N1C(=O)C(C)Cl (configuration not stated) | > 100 | > 100 | > 100 | > 100 | > 100 | > 100 | > 100 | > 100 | > 100 | > 100 | > 100 | > 100 | > 100 | > 100 | > 100 | > 100 | > 100 |  |  | 
2 | Nc1ccc2nc(NCc3ccc(F)cc3)cnc2c1 |  | > 100 |  | > 100 | > 100 |  | > 100 | > 100 | > 100 | > 100 | > 100 | > 100 | > 100 | > 100 | > 100 | > 100 | > 100 | > 100 |  | 
3 | COc1ccccc1/C=C(\C#N)C(=O)c1ccccc1 | > 100 | > 100 | > 100 | > 100 | > 100 | > 100 | > 100 | > 100 | > 100 | > 100 | > 100 | > 100 | > 100 | > 100 | > 100 | > 100 | > 100 |  |  | 
4 | CCOCN1COCN=C1NC#N | > 100 | 35.3 | > 100 | > 100 | > 100 | > 100 | > 100 | 69.7 | > 100 | > 100 | > 100 |  | > 100 | > 100 | > 100 | > 100 | > 100 | 34.7 |  | 
5 | CC1OC(n2ccc(=O)[nH]c2=O)C=C(OC(=O)c2ccccc2)C1=O (configuration not stated) |  | > 100 | 99.6 | > 100 | > 100 | > 100 | > 100 | > 100 | > 100 | > 100 | > 100 | > 100 |  | > 100 | > 100 | 36.8 | > 100 | > 100 |  | 
6 | NC(=O)c1cccc(C2OC(COP(=O)(O)O)C(O)C2O)c1 (configuration not stated) | > 50 | > 50 |  | > 50 | > 50 | > 50 | > 50 | > 50 | > 50 | > 50 | > 50 | > 50 | > 50 | > 50 | > 50 |  | > 50 | > 50 |  | 
7 | O=C1[C@@H]2C(c3ccc(Cl)cc3Cl)=NO[C@@H]2C(=O)N1c1ccc(Cc2ccc(N3C(=O)[C@H]4C(c5ccc(Cl)cc5Cl)=NO[C@H]4C3=O)cc2)cc1 | > 100 | > 100 | 41.4 | > 100 | > 100 | > 100 | > 100 | > 100 | 48.8 |  | > 100 | > 100 | > 100 | > 100 | > 100 | > 100 | > 100 | 68.8 |  | 
8 | COc1cc2c(c(O)c1OC)C(O)C1CCC(=O)N1C2c1cccc2ccccc12 (configuration not stated) | > 100 | > 100 | > 100 | > 100 | > 100 | > 100 | > 100 | > 100 | > 100 | > 100 |  | > 100 | > 100 | > 100 | > 100 | > 100 | > 100 | > 100 | > 100 | > 100
9 | N#CC(c1ccnc(Cl)n1)c1nc2ccccc2s1 (configuration not stated) | 46.7 | > 70.7 | 14.1 | 28.4 | 76.2 | > 45.4 | 3.1 | 24.6 | 5.43 | > 75.1 |  | 25.9 | > 45.9 | > 39.3 | 15.6 | > 100 | > 100 | > 62.7 | > 100 | 28.4
10 | CCCN1CC=C(c2cc(C(=O)OCC)[nH]c2-c2cc(C)no2)C1=O | > 100 | > 100 | > 100 | > 100 | > 100 | > 100 | > 100 | > 100 | > 100 | > 100 |  | > 100 | > 100 | > 100 | > 100 | > 100 | > 100 | > 100 | > 100 | > 100
11 | Cn1c2c(c3ccccc31)CCN(CCN1CCN(c3ccccc3)CC1)C2=O |  | > 100 | 96.5 | > 100 | > 100 | > 100 | > 100 | > 100 | > 100 |  | 61.3 | > 100 |  | > 100 | > 100 |  | > 100 | 83.4 |  | 
12 | N#CCCN(c1ccc(/C=C2\N=C(Cc3ccccc3)OC2=O)cc1)S(=O)(=O)c1ccccc1 | > 100 | > 100 |  | > 100 | > 100 | > 100 | > 100 | > 100 | > 100 | > 100 | > 100 | > 100 | > 100 | > 100 | > 100 |  | > 100 | > 100 |  | 
13 | N#CC(C(=O)/C(=N/NC(=O)c1ccccc1O)C(C#N)c1ccccc1)c1ccccc1 (configuration not stated) | > 100 |  | > 100 | > 100 |  |  |  | > 100 |  |  | > 100 | > 100 | > 100 |  | > 100 | > 100 | > 100 | > 100 |  | 
14 | COc1ccc(/C(Cl)=C(/c2ccc(O)cc2)c2ccc(OCCN(C)C)cc2)cc1 |  | 24.2 |  | 19.7 |  | 27.5 | 16.9 | 22.4 | 26 | 27.1 | 10.3 | 21.6 | 21.1 |  | 29.1 | 27.1 | 13.4 | 18.4 |  | 
